# Molecular target: T1, human GnRH receptor (Homo sapiens, UniProt P30968)
# T1 sequence (P30968 1-328): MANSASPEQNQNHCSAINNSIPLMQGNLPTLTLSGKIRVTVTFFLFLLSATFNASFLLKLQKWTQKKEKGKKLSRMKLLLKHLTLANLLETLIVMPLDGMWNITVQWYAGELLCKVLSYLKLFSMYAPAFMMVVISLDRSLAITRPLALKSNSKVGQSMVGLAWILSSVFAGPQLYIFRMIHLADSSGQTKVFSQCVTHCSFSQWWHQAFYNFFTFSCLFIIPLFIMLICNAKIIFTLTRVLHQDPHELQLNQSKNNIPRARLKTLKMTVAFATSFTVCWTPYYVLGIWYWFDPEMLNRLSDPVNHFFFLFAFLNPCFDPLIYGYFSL
# Test: Test for GnRH receptor antagonistic effect (inhibition of 125I-D-Trp6-LHRH binding)
# Conditions: Table 1; read-out: IC50 (concentration that inhibits 50% of the binding of 125I-D-Trp6-LHRH to a human GnRH receptor)
# Experimental: The GnRH receptor antagonistic effects of the compounds of the present invention were evaluated by calculating their concentration that inhibit 50% of the binding of ^125I-D-Trp^6-LHRH to a human GnRH receptor (IC50), according to the description in Patent Reference 1, page 56 “1. Test for GNRH Receptor Antagonistic Effect”.
# Accordingly, for confirming the usefulness of “group of —SO2—R^3”, the activities of the compounds of the present invention was compared with those of the comparative compounds having —CO—R^3 group.
row,IC50 [nM],SMILES
1,0.094,CC(C)(O)C(=N)NS(=O)(=O)c1cccc(C(=O)C(C(=O)c2cccc(F)c2)=C2Nc3ccccc3N2)c1 [Example 211]
2,0.058,CC(=N)NS(=O)(=O)c1cccc(C(=O)C(C(=O)c2cccc(F)c2)=C2Nc3ccccc3N2)c1 [Example 245]
3,0.24,CC(C)(O)C(=N)NS(=O)(=O)c1cc(C(=O)C(C(=O)c2cccc(F)c2)=C2Nc3ccccc3N2)ccc1F [Example 662]
4,0.18,"C[C@@H](O)C(=N)NS(=O)(=O)c1cc(C(=O)C(C(=O)c2cccc(F)c2)=C2Nc3ccccc3N2)ccc1F [Example 696, (2R)-N-({5-[2-(1,3-dihydro-2H-benzimidazol-2-ylidene)-3-(3-fluorophenyl)-3-oxopropanoyl]-2-fluorophenyl}sulfonyl)-2-hydroxypropanimidamide]"

# Same assay, conditions: Table 2; read-out: IC50 (GnRH receptor binding), SO2-R3 compounds versus comparative CO-R3 compounds
row,IC50 [nM],SMILES
1,16,"CC(=O)NC(N)=NC(=O)c1cccc(C(=O)C(C(=O)c2cc(F)cc(F)c2)=C2Nc3ccccc3N2)c1 [Comparative Example 3, reference compound]"
2,0.053,CC(=N)NS(=O)(=O)c1cccc(C(=O)C(C(=O)c2cc(F)cc(F)c2)=C2Nc3ccccc3N2)c1 [Example 73]
3,0.56,CC(=O)NC(N)=NS(=O)(=O)c1cccc(C(=O)C(C(=O)c2cc(F)cc(F)c2)=C2Nc3ccccc3N2)c1 [Example 74]
4,0.066,O=C(C(C(=O)c1cccc(S(=O)(=O)NCCO)c1)=C1Nc2ccccc2N1)c1cc(F)cc(F)c1 [Example 77]
5,0.022,NC(N)=NS(=O)(=O)c1cccc(C(=O)C(C(=O)c2cc(F)cc(F)c2)=C2Nc3ccccc3N2)c1 [Example 89]
6,7.1,"CC(=N)NC(=O)c1cccc(C(=O)C(C(=O)c2cc(F)cc(F)c2)=C2Nc3ccccc3N2)c1 [compound 1, reference compound]"
7,9.6,"O=C(NCCO)c1cccc(C(=O)C(C(=O)c2cc(F)cc(F)c2)=C2Nc3ccccc3N2)c1 [compound 4, reference compound]"

# From patent US7960562B2, “Propane-1,3-dione derivative or salt thereof” (Astellas Pharma Inc., priority 2005, dated 2011)
